Assay results: PubChem BioAssay (NCI)
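Briefly, cells in 96-well plates were exposed to five compound concentrations for 48 h, and endpoints were estimated by linear interpolation. Here, GI50 denotes the concentration required for 50% inhibition of growth. TGI marks complete inhibition of growth.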

Columns and labels:
Test in all cases: inhibition of tumour cell growth, NCI panel, 48 h
MDA-MB-468 breast = test system: MDA-MB-468 breast
A549 NSCLC = test system: A549 NSCLC
IGROV1 ovarian = test system: IGROV1 ovarian
K-562 leukemia = test system: K-562 leukemia
SK-OV-3 ovarian = test system: SK-OV-3 ovarian
SK-MEL-5 melanoma = test system: SK-MEL-5 melanoma
T-47D breast = test system: T-47D breast
A498 renal = test system: A498 renal
CAKI-1 renal = test system: CAKI-1 renal
U251 CNS = test system: U251 CNS
MDA-MB-435 = test system: MDA-MB-435
UACC-62 melanoma = test system: UACC-62 melanoma
UACC-257 melanoma = test system: UACC-257 melanoma
OVCAR-4 ovarian = test system: OVCAR-4 ovarian
MCF7 breast = test system: MCF7 breast
MALME-3M melanoma = test system: MALME-3M melanoma
NCI/ADR-RES ovarian = test system: NCI/ADR-RES ovarian
NCI-H522 lung = test system: NCI-H522 lung
COLO 205 colon = test system: COLO 205 colon
HOP-62 NSCLC = test system: HOP-62 NSCLC
DU-145 prostate = test system: DU-145 prostate
OVCAR-8 ovarian = test system: OVCAR-8 ovarian
HS 578T breast = test system: HS 578T breast
SF-539 CNS = test system: SF-539 CNS
BT-549 breast = test system: BT-549 breast
SF-295 CNS = test system: SF-295 CNS
M14 melanoma = test system: M14 melanoma
SNB-19 CNS = test system: SNB-19 CNS
EKVX NSCLC = test system: EKVX NSCLC
SK-MEL-28 melanoma = test system: SK-MEL-28 melanoma
SN12C renal = test system: SN12C renal
PC-3 prostate = test system: PC-3 prostate
OVCAR-5 ovarian = test system: OVCAR-5 ovarian
SNB-75 CNS = test system: SNB-75 CNS
MDA-MB-231 breast = test system: MDA-MB-231 breast
KM12 colon = test system: KM12 colon
MOLT-4 leukemia = test system: MOLT-4 leukemia
NCI-H226 lung = test system: NCI-H226 lung
TK-10 renal = test system: TK-10 renal
SK-MEL-2 melanoma = test system: SK-MEL-2 melanoma
ACHN renal = test system: ACHN renal
RXF 393 renal = test system: RXF 393 renal
SF-268 CNS = test system: SF-268 CNS
NCI-H23 lung = test system: NCI-H23 lung
HOP-92 NSCLC = test system: HOP-92 NSCLC
NCI-H460 lung = test system: NCI-H460 lung
UO-31 renal = test system: UO-31 renal

CC(NCCC(c1ccccc1)c1ccccc1)c1ccccc1 (stereo not drawn)
GI50 (MDA-MB-468 breast): 1.3 µM
TGI (MDA-MB-468 breast): 2.64 µM

Nc1ncn([C@@H]2O[C@H](CO)[C@@H](O)[C@H]2O)c(=O)n1
GI50 (MDA-MB-468 breast): 1.03 µM
TGI (MDA-MB-468 breast): 5.34 µM

Cc1cc(N[C@@H]2CCC[C@H](Nc3ccnc4cc(Cl)ccc34)C2)nc(N2CCCCCC2)n1
GI50 (MDA-MB-468 breast): 1.4 µM
TGI (MDA-MB-468 breast): 3.11 µM

CCN1CCN(c2cc(C)c3cc(NC(=O)c4ccc(OC)c(OC)c4)ccc3n2)CC1
GI50 (MDA-MB-468 breast): 17.7 µM
TGI (MDA-MB-468 breast): > 100 µM

CCn1c(O)c(/C=N/NC(=O)C(C)c2ccc(CC(C)C)cc2)sc1=S (stereo not drawn)
GI50 (MDA-MB-468 breast): 0.378 µM
TGI (MDA-MB-468 breast): 12 µM

N#Cc1nn(-c2cc(=O)[nH]c3ccc(Cl)cc23)c(N)c1C#N
GI50 (MDA-MB-468 breast): > 100 µM
TGI (MDA-MB-468 breast): > 100 µM

N=c1c2c(-c3ccccc3)c(-c3ccccc3)n(Cc3ccccc3)c2ncn1C1CCC(O)CC1 (stereo not drawn)
GI50 (MDA-MB-468 breast): 0.631 µM
TGI (MDA-MB-468 breast): 3.23 µM

CCc1cc(OC(=O)N2CCC(N3CCCCC3)CC2)ccc1Nc1cc(-c2ccc(-n3cccn3)cc2)[nH]n1
GI50 (MDA-MB-468 breast): 1.74 µM
TGI (MDA-MB-468 breast): 3.65 µM

CN(C)C1CCN(C(=O)c2ccc(NC(=O)Nc3ccc(-c4nc(N5CCOCC5)c5cccn5n4)cc3)cc2)CC1
GI50 (MDA-MB-468 breast): 0.0186 µM
TGI (MDA-MB-468 breast): 0.0866 µM

Clc1cc2c(c(CSc3nc4ccccc4n4cccc34)c1)OCOC2
GI50 (MDA-MB-468 breast): 2.16 µM
TGI (MDA-MB-468 breast): > 100 µM

COc1cc(Cl)cc(-c2nn(-c3cccc(NC(=O)c4ccc(N5CCOCC5)c(C(F)(F)F)c4)c3)cc2-c2ccncc2)c1
GI50 (MDA-MB-468 breast): 12.1 µM
TGI (MDA-MB-468 breast): > 100 µM

C[C@@H]1C[C@@H]([C@@H](CC2CC(=O)NC(=O)C2)OC(=O)CC(=O)c2ccccc2)C(=O)[C@@H](C)C1
GI50 (MDA-MB-468 breast): 1.17 µM
TGI (MDA-MB-468 breast): > 100 µM

Cn1cc(-c2cc(N)n3nc(-c4c[nH]c5ccccc45)cc3n2)c2cccnc21
GI50 (A549 NSCLC): 4.19 µM
TGI (A549 NSCLC): > 100 µM
GI50 (IGROV1 ovarian): 19.1 µM
TGI (IGROV1 ovarian): 55.9 µM
GI50 (K-562 leukemia): 2.79 µM
TGI (K-562 leukemia): > 100 µM
GI50 (SK-OV-3 ovarian): 20.6 µM
TGI (SK-OV-3 ovarian): 69.5 µM
GI50 (SK-MEL-5 melanoma): 7.04 µM
TGI (SK-MEL-5 melanoma): 20.5 µM
GI50 (T-47D breast): 2.99 µM
TGI (T-47D breast): 13.1 µM
GI50 (A498 renal): 23 µM
TGI (A498 renal): 54.8 µM
GI50 (CAKI-1 renal): 3.85 µM
TGI (CAKI-1 renal): 44.8 µM
GI50 (MDA-MB-468 breast): 2.22 µM
TGI (MDA-MB-468 breast): 6.42 µM
GI50 (U251 CNS): 3.34 µM
TGI (U251 CNS): > 100 µM
GI50 (MDA-MB-435): 11 µM
TGI (MDA-MB-435): 29.5 µM
GI50 (UACC-62 melanoma): 5.71 µM
TGI (UACC-62 melanoma): 21.7 µM
GI50 (UACC-257 melanoma): 13.7 µM
TGI (UACC-257 melanoma): 33.5 µM
GI50 (OVCAR-4 ovarian): 3.42 µM
TGI (OVCAR-4 ovarian): > 100 µM
GI50 (MCF7 breast): 3.3 µM
TGI (MCF7 breast): > 100 µM
GI50 (MALME-3M melanoma): 3.25 µM
TGI (MALME-3M melanoma): 17.1 µM
GI50 (NCI/ADR-RES ovarian): 4.66 µM
TGI (NCI/ADR-RES ovarian): > 100 µM
GI50 (NCI-H522 lung): 5.54 µM
TGI (NCI-H522 lung): 35.9 µM
GI50 (COLO 205 colon): 10.7 µM
TGI (COLO 205 colon): 45.1 µM
GI50 (HOP-62 NSCLC): 6.15 µM
TGI (HOP-62 NSCLC): 59.7 µM
GI50 (DU-145 prostate): 5.09 µM
TGI (DU-145 prostate): > 100 µM
GI50 (OVCAR-8 ovarian): 4.63 µM
TGI (OVCAR-8 ovarian): > 100 µM
GI50 (HS 578T breast): 20 µM
TGI (HS 578T breast): > 100 µM
GI50 (SF-539 CNS): 2.58 µM
TGI (SF-539 CNS): 7.31 µM
GI50 (BT-549 breast): 11.8 µM
TGI (BT-549 breast): 33.6 µM
GI50 (SF-295 CNS): 1.99 µM
TGI (SF-295 CNS): 4.74 µM
GI50 (M14 melanoma): 2.63 µM
TGI (M14 melanoma): 6.79 µM
GI50 (SNB-19 CNS): 14.8 µM
TGI (SNB-19 CNS): 31.4 µM
GI50 (EKVX NSCLC): 15.3 µM
TGI (EKVX NSCLC): > 100 µM
GI50 (SK-MEL-28 melanoma): 5.33 µM
TGI (SK-MEL-28 melanoma): 20.2 µM
GI50 (SN12C renal): 11.6 µM
TGI (SN12C renal): 42.1 µM
GI50 (PC-3 prostate): 3.83 µM
TGI (PC-3 prostate): 23.6 µM
GI50 (OVCAR-5 ovarian): 11 µM
TGI (OVCAR-5 ovarian): 39.1 µM
GI50 (SNB-75 CNS): 2.44 µM
TGI (SNB-75 CNS): 44.2 µM
GI50 (MDA-MB-231 breast): 3.4 µM
TGI (MDA-MB-231 breast): 28.8 µM
GI50 (KM12 colon): 3.34 µM
TGI (KM12 colon): 14.7 µM
GI50 (MOLT-4 leukemia): 3.32 µM
TGI (MOLT-4 leukemia): > 100 µM
GI50 (NCI-H226 lung): 14.1 µM
TGI (NCI-H226 lung): > 100 µM
GI50 (TK-10 renal): 17.1 µM
TGI (TK-10 renal): 59.3 µM
GI50 (SK-MEL-2 melanoma): 12.5 µM
TGI (SK-MEL-2 melanoma): 43.1 µM
GI50 (ACHN renal): 3.77 µM
TGI (ACHN renal): 21.1 µM
GI50 (RXF 393 renal): 2.28 µM
TGI (RXF 393 renal): 8.2 µM
GI50 (SF-268 CNS): 17.9 µM
TGI (SF-268 CNS): 81.9 µM
GI50 (NCI-H23 lung): 19 µM
TGI (NCI-H23 lung): 73.6 µM
GI50 (HOP-92 NSCLC): 5.81 µM
TGI (HOP-92 NSCLC): 27.8 µM
GI50 (NCI-H460 lung): 3.56 µM
TGI (NCI-H460 lung): > 100 µM
GI50 (UO-31 renal): 5.41 µM
TGI (UO-31 renal): 26.6 µM
